Results: patent US11135252B2, “Probiotic therapies for developmental disorders and other neurological disorders” (Baylor College of Medicine, priority 2016, dated 2021)
Entries after “also recorded” stand apart in the source; their conditions may differ.

How the values were obtained:
[1] = test system: MHFD offspring; test: Open field test in MHFD offspring; type: in vivo, mice; settings: L. reuteri in drinking water
Method: Mice were placed in an open arena (40×40×20 cm) and allowed to explore freely for 10 minutes while their position was continually monitored using tracking software (ANY-Maze). Tracking allowed for measurement of distance traveled, speed, and position in the arena throughout the task. Time spent in the center of the arena, defined as the interior 20×20 cm, was recorded. Lactobacillus reuteri MM4-1A (ATCC-PTA-6475) and Lactobacillus johnsonii (ATCC 33200) were cultured anaerobically in MRS broth in a 90% N2, 5% CO2, 5% H2 environment. L. reuteri was heat-killed by keeping the bacteria at 80° C. for 20 minutes (Wang et al., 2010). Bacterial viability was assessed by plating and the efficacy of the heat-kill procedure was confirmed by the absence of colony growth following plating. Cultures were centrifuged, washed, and resuspended in anaerobic solution (PBS) and frozen at −80° C. until use. PBS, live or heat-killed L. reuteri were added to the drinking water, which was changed daily to minimize dosage variability. Whereas the experimental group received live bacteria, one control group received identically prepared cultures of heat-killed bacteria. A second group of control mice received water treated with PBS alone. Live and heat-killed L. reuteri were supplied at a dosage of 1×10^8 organisms/mouse/day continuously in drinking water. […]

[2] = test system: MRD offspring; test: Three-chamber social test in MRD offspring; type: in vivo, mice; settings: in drinking water
Method: Crawley's three-chamber test for sociability and preference for social novelty was performed as described (Silverman et al., 2010). In brief, the mouse first experienced a 10-minute period of habituation during which it was allowed to freely explore a 60×40×23 cm Plexiglass arena divided into three equally sized, interconnected chambers (Left, Center, Right). Sociability was measured during a second ten-minute period in which the subject could interact either with an empty wire cup (Empty) or a wire cup containing an age and sex-matched stranger conspecific (Mouse 1). Time spent interacting (sniffing, crawling upon) with either the empty cup or the stranger mouse contained in the other cup as well as time spent in each chamber was recorded using the AnyMaze software, by independent observers. Empty cup placement in the Left or Right chamber during the Sociability period was counterbalanced between trials. Finally, preference for social novelty was assayed by introducing a second stranger mouse (Mouse 2) into the previously the empty wire cup. Time spent in each chamber as well as time spent interacting with either Mouse 1 or Mouse 2 was recorded using the automated AnyMaze software by independent observers. Lactobacillus reuteri MM4-1A (ATCC-PTA-6475) and Lactobacillus johnsonii (ATCC 33200) were cultured anaerobically in MRS broth in a 90% N2, 5% CO2, 5% H2 environment. L. reuteri was heat-killed by keeping the bacteria at 80° C. for 20 minutes (Wang et al., 2010). Bacterial viability was assessed by plating and the efficacy of the heat-kill procedure was confirmed by the absence of colony growth following plating. Cultures were centrifuged, washed, and resuspended in anaerobic solution (PBS) and frozen at −80° C. until use. PBS, live or heat-killed L. reuteri were added to the drinking water, which was changed daily to minimize dosage variability. Whereas the experimental group received live bacteria, one control group received identically prepared cultures of heat-killed bacteria. A second group of control mice received water treated with PBS alone. […]

[3] = test system: Cntnap2-deficient mice; settings: mice lacking Cntnap2; oxytocin (Penagarikano et al., 2015; 2011); cited from earlier work

Molecule	time exploring the center of the open field arena (anxiety-related behavior) [1]	sociability (chamber containing a mouse, FIG. 16A) [2]	social behavior [2]	social novelty (chamber containing Mouse 2, FIG. 16B) [2]	social behavioral abnormalities [3]
Lactobacillus reuteri MM4-1A (ATCC-PTA-6475) [L. reuteri]	failed to rescue the changes in anxiety; also recorded: did not significantly affect this behavior	preferred the chamber containing a mouse	did not change the social behavior	preferred	–
CC[C@H](C)[C@@H]1NC(=O)[C@H](Cc2ccc(O)cc2)NC(=O)[C@@H](N)CSSC[C@@H](C(=O)N2CCC[C@H]2C(=O)N[C@@H](CC(C)C)C(=O)NCC(N)=O)NC(=O)[C@H](CC(N)=O)NC(=O)[C@H](CCC(N)=O)NC1=O [oxytocin]	–	–	–	–	rescues the social behavioral abnormalities
